Assay results from patent US4816459A, “Tetrazolyl-substituted pyrido[1,2-a]pyrimidines and use as SRS-A antagonists” (Tokyo Tanabe Co. Ltd., priority 1985, dated 1989).
≈ marks a conversion by molar mass, not a printed value. Where a name gives a salt, the structure may show the parent alone.

Key:
SRS-A = conditions: Japanese Journal of Allergology 1984; cited from earlier work
leukotriene D4 = experiment: Antagonistic effect on leukotriene D4 in excised guinea pig terminal ileum (in vitro, inhibition of contraction); type: cell-based, guinea pig (male, Hartley strain); conditions: Cavia porcellus, leukotriene D4 0.3 ng/ml, 50% inhibition of contraction
Experimental: Specifically, the terminal ileum was suspended, under aerated conditions, in 10 ml of Tyrode's solution containing 5×10^-7 M atropine and 1×10^-6 M mepyramine. Then, a test compound and leukotriene D4 (manufactured by Wako Junyaku Co., Ltd.) were successively added thereto with an interval of 30 seconds.
Specifically, at varying concentrations of each test compound, the percent inhibition of contraction was calculated from the measured degree of contraction of the ileum according to the following equation: [formula] On the basis of the data thus obtained, a dose-response curve was prepared and used to determine the IC50 value of the test compound.

[1] = tested on: leukotriene D4-induced airway constriction reaction; experiment: Inhibition of leukotriene D4-induced Type I allergic reaction (airway constriction), Konzett-Rossler procedure, intravenous injection; type: in vivo, guinea pig (male, Hartley strain); conditions: Cavia porcellus, 2 min, leukotriene D4 0.5 μg/kg i.v. 2 minutes later, 50% inhibition of airway constriction, read-out: Inhibitory effect on Type I allergic reaction ID50 (intravenous)
Experimental: (§1) Using male guinea pigs of the Hartley strain, weighing about 400 g, in groups of six, the inhibitory effect of the present compounds [I] and physiologically acceptable salts thereof on a Type I allergic reaction induced by leukotriene D4 was tested in two dosage forms (i.e., by intravenous injection and by oral administration) according to the Konzett-Rossler procedure [Naunyn-Schmiederbergs Archiv fur Experimentelle Pathologie und Pharmakologie, Vol. 195, p. 71, 1940]. Specifically, each guinea pig was anesthetized by intraperitoneal administration of 1.5 g/kg of urethane and an incision was made in the neck to expose the trachea. To the exposed trachea was connected a respirator (with a ventilation volume of 5-7 ml, a respiration rate of 70 per minute, and a pulmonary load pressure of 10 cmH2 O; manufactured by Ugo Basile Biological Research Apparatus Co.) by way of a cannula. The volume of air overflowing through the branch of the cannula was measured by means of a Model 7020 Bronchospasm Transducer (manufactured by Ugo Basile Biological Research Apparatus Co.) and recorded with a Model RM-6000 Polygraph (manufactured by Nippon Koden Co., Ltd.).
Intravenous injection tests were carried out as follows: Each guinea pig was treated by intravenous injection of 1 mg/kg of gallamine triethiodide. Then, 20.0 to 6000.0 μg/kg of a test compound and 0.5 μg/kg of leukotriene D4 were successively administered thereto through the cervical vein with an interval of 2 minutes. The volume of air overflowing as a result of the induced airway constriction reaction was measured. The test compound was used in the form of a solution in physiological saline containing sodium hydrogen carbonate or potassium carbonate.
(§2) Both in the intravenous injection tests and in the oral administration tests, leukotriene D4 was used in the form of a solution in physiological saline.
(§3) Both in the intravenous injection tests and in the oral administration tests, the pharmacological effect on the Type I allergic reaction was evaluated in terms of the dose of the test compound at which the airway constriction reaction induced by leukotriene D4 was inhibited by 50% (hereinafter referred to as ID50), provided that ID50 was expressed in μg/kg for the intravenous injection tests and in mg/kg for the oral administration tests. […] On the basis of the data thus obtained, a dose-response curve was prepared and used to determine the ID50 value of the test compound.
(§4) Among the test compounds indicated, the compounds of Examples 1, 6 and 9 used in the intravenous injection tests were prepared according to procedure a described in the respective examples, and those used in the oral administration tests were prepared according to procedure b.

[2] = tested on: SRS-A as represented by leukotriene D4; experiment: Confirmatory experiment: antagonistic effect on SRS-A as represented by leukotriene D4; conditions: confirmatory experiment by the inventors
[3] = tested on: leukotriene D4-induced airway constriction reaction; experiment: Inhibition of leukotriene D4-induced Type I allergic reaction (airway constriction), Konzett-Rossler procedure, oral administration; type: in vivo, guinea pig (male, Hartley strain); conditions: Cavia porcellus; oral 90 minutes before anesthesia; leukotriene D4 0.5 μg/kg i.v.; 50% inhibition of airway constriction; read-out: Inhibitory effect on Type I allergic reaction ID50 (oral)
Experimental: as §1
Oral administration tests were carried out as follows: 1 to 30 mg/kg of a test compound was orally administered to each guinea pig 90 minutes before anesthesia with urethane. Then, the anesthetized guinea pig was treated by intravenous injection of 1 mg/kg of gallamine triethiodide and administration of 0.5 μg/kg of leukotriene D4 through the cervical vein. The volume of air overflowing as a result of the induced airway constriction reaction was measured.
as §2, §3, §4

[4] = Acute toxicity (LD50) in mice; conditions: mouse, in vivo, 5-weeks-old male ddY strain mice
Experimental: (§5) The acute toxicity (LD50) of several typical examples of the present compounds [I] and physiologically acceptable salts thereof was tested on 5-weeks-old male ddY strain mice and male SD strain rats. For this purpose, the compounds of Examples 1, 6 and 9 were selected as typical examples. […] For rats, their LD50 values were not less than 4.0 g/kg when administered orally, and not less than 200 mg/kg when administered intravenously.

[5] = Acute toxicity (LD50) in rats; conditions: rat, in vivo, male SD strain rats
Experimental: as §5

[6] = intravenous, read-out: LD50, intravenous, mice
[7] = oral, read-out: LD50, oral, mice
[8] = intravenous, read-out: LD50, intravenous, rats
[9] = oral, read-out: LD50, oral, rats

Row | Structure (SMILES) | type of SRS-A drug (in words) (SRS-A) | IC50 (leukotriene D4) [µg/mL] | ED50 [1] [mg/kg] | antagonistic effect on SRS-A as represented by leukotriene D4 (in words) [2] | ED50 [3] [mg/kg] | LD50 [4, 6] [mg/kg] | LD50 [4, 7] [mg/kg] | LD50 [5, 8] [mg/kg] | LD50 [5, 9] [mg/kg]
1 | Cc1cccn2c(=O)c(-c3nnn[nH]3)cnc12.[K] [Compound TBX, 9-Methyl-3-(1H-tetrazol-5-yl)-4H-pyrido[1,2-a]pyrimidin-4-one potassium salt, reference compound] | belongs to the SRS-A release suppression type | 200 | ≥ 10 | no antagonistic effect |  |  |  |  | 
2 | CCCc1c(OCc2cccn3c(=O)c(-c4nnn[nH]4)cnc23)ccc(C(C)=O)c1O [Example 1, 9-[(4-acetyl-3-hydroxy-2-n-propylphenoxy)methyl]-3-(1H-tetrazol-5-yl)-4H-pyrido[1,2-a]-pyrimidin-4-one] |  | 0.03 (≈ 0.0714 µM) | 0.097 |  | 9 | ≥ 100 | ≥ 4000 | ≥ 200 | ≥ 4000
3 | CCCc1c(OCc2ccc3ncc(-c4nnn[nH]4)c(=O)n3c2)ccc(C(C)=O)c1O [Example 2, 7-[(4-acetyl-3-hydroxy-2-n-propylphenoxy)methyl]-3-(1H-tetrazol-5-yl)-4H-pyrido[1,2-a]pyrimidin-4-one] |  | 0.1 (≈ 0.238 µM) | 0.16 |  |  |  |  |  | 
4 | CCCc1c(OCc2ccn3c(=O)c(-c4nnn[nH]4)cnc3c2)ccc(C(C)=O)c1O [Example 3, 8-[(4-acetyl-3-hydroxy-2-n-propylphenoxy)methyl]-3-(1H-tetrazol-5-yl)-4H-pyrido[1,2-a]pyrimidin-4-one] |  | 0.2 (≈ 0.476 µM) | 0.17 |  |  |  |  |  | 
5 | CCCc1c(OCc2cc(Br)cn3c(=O)c(-c4nnn[nH]4)cnc23)ccc(C(C)=O)c1O [Example 4, 9-[(4-acetyl-3-hydroxy-2-n-propylphenoxy)methyl]-7-bromo-3-(1H-tetrazol-5-yl)-4H-pyrido[1,2-a]pyrimidin-4-one] |  | 1 (≈ 2 µM) | 4.9 |  |  |  |  |  | 
6 | CCCc1c(OCc2cc(C)cn3c(=O)c(-c4nnn[nH]4)cnc23)ccc(C(C)=O)c1O [Example 5, 9-[(4-acetyl-3-hydroxy-2-n-propylphenoxy)methyl]-7-methyl-3-(1H-tetrazol-5-yl)-4H-pyrido[1,2-a]pyrimidin-4-one] |  | 0.8 (≈ 1.84 µM) |  |  |  |  |  |  | 
7 | CCCc1c(OCc2cccn3c(=O)c(Cc4nnn[nH]4)cnc23)ccc(C(C)=O)c1O [Example 6, 9-[(4-acetyl-3-hydroxy-2-n-propylphenoxy)methyl]-3-[(1H-tetrazol-5-yl)methyl]-4H-pyrido[1,2-a]pyrimidin-4-one] |  | 0.01 (≈ 0.023 µM) | 0.11 |  | 10 | ≥ 100 | ≥ 4000 | ≥ 200 | ≥ 4000
8 | CCCc1c(OCc2ccc3ncc(Cc4nnn[nH]4)c(=O)n3c2)ccc(C(C)=O)c1O [Example 7, 7-[(4-acetyl-3-hydroxy-2-n-propylphenoxy)methyl]-3-[(1H-tetrazol-5-yl)methyl]-4H-pyrido[1,2-a]pyrimidin-4-one] |  | 0.1 (≈ 0.23 µM) |  |  |  |  |  |  | 
9 | CCCc1c(OCc2cc(C)cn3c(=O)c(Cc4nnn[nH]4)cnc23)ccc(C(C)=O)c1O [Example 8, 9-[(4-acetyl-3-hydroxy-2-n-propylphenoxy)methyl]-7-methyl-3-[(1H-tetrazol-5-yl)methyl]-4H-pyrido[1,2-a]pyrimidin-4-one] |  | 0.7 (≈ 1.56 µM) | 1.9 |  |  |  |  |  | 
10 | CCCc1c(OCc2cccn3c(=O)c(CCc4nnn[nH]4)cnc23)ccc(C(C)=O)c1O [Example 9, 9-[(4-acetyl-3-hydroxy-2-n-propylphenoxy)methyl]-3-[2-(1H-tetrazol-5-yl)ethyl]-4H-pyrido[1,2-a]pyrimidin-4-one] |  | 0.005 (≈ 0.0111 µM) | 0.038 |  | 5 | ≥ 100 | ≥ 4000 | ≥ 200 | ≥ 4000
11 | CCCc1c(OCc2ccn3c(=O)c(CCc4nnn[nH]4)cnc3c2)ccc(C(C)=O)c1O [Example 10, 8-[(4-acetyl-3-hydroxy-2-n-propylphenoxy)methyl]-3-[2-(1H-tetrazol-5-yl)ethyl]-4H-pyrido[1,2-a]pyrimidin-4-one] |  | 0.6 (≈ 1.34 µM) |  |  |  |  |  |  | 
12 | CCCc1c(OCc2cc(Br)cn3c(=O)c(CCc4nnn[nH]4)cnc23)ccc(C(C)=O)c1O [Example 11, 9-[(4-acetyl-3-hydroxy-2-n-propylphenoxy)methyl]-7-bromo-3-[2-(1H-tetrazol-5yl)ethyl]-4H-pyrido[1,2-a]pyrimidin-4-one] |  | 0.9 (≈ 1.71 µM) | 2.9 |  |  |  |  |  | 
13 | CCCc1c(OCc2cccn3c(=O)c(-c4nn[nH]n4)cnc23)ccc(C(C)=O)c1O [Example 12, 9-[(4-acetyl-3-hydroxy-2-n-propylphenoxy)methyl]-3-(1H-tetrazol-5-yl)-4H-pyrido[1,2-a]pyrimidin-4-one potassium salt] |  | 0.03 | 0.097 |  | 10 |  |  |  | 
